Results published in ChEMBL document CHEMBL3102853, “Carbonic anhydrase inhibitors. Synthesis, and molecular structure of novel series N-substituted N'-(2-arylmethylthio-4-chloro-5-methylbenzenesulfonyl)guanidines and their inhibition of human cytosolic isozymes I and II and the transmembrane tumor-associated isozymes IX and XII” (Eur J Med Chem, 2014).
Activity calls are given as the source filed them. The rule behind the calls is not given here.

Key:
Format in all cases: functional
K562 = experiment: Cytotoxicity against human K562 cells at 10 uM; details: read-out: GI
A549 = experiment: Cytotoxicity against human A549 cells at 10 uM; details: read-out: GI
HT-29 = experiment: Cytotoxicity against human HT-29 cells at 10 uM; details: read-out: GI
SK-MEL-2 = experiment: Cytotoxicity against human SK-MEL-2 cells at 10 uM; details: read-out: GI
MOLT-4 = experiment: Cytotoxicity against human MOLT4 cells at 10 uM; details: read-out: GI
MDA-MB-468 = experiment: Cytotoxicity against human MDA-MB-468 cells at 10 uM; details: read-out: GI
NCI-H460 = experiment: Cytotoxicity against human NCI-H460 cells at 10 uM; details: read-out: GI
HOP-92 = experiment: Cytotoxicity against human HOP92 cells at 10 uM; details: read-out: GI
[1] = Cytotoxicity against human Hs 578T cells at 10 uM; details: read-out: GI
NCI/ADR-RES = experiment: Cytotoxicity against human NCI-ADR-RES cells at 10 uM
KM12 = experiment: Cytotoxicity against human KM12 cells at 10 uM; details: read-out: GI
MCF7 = experiment: Cytotoxicity against human MCF7 cells at 10 uM; details: read-out: GI
SF-268 = experiment: Cytotoxicity against human SF268 cells at 10 uM; details: read-out: GI
A498 = experiment: Cytotoxicity against human A498 cells at 10 uM; details: read-out: GI
SW-620 = experiment: Cytotoxicity against human SW620 cells at 10 uM; details: for inhibition of growth at 10 µM: read-out: GI
PC-3 = experiment: Cytotoxicity against human PC3 cells at 10 uM; details: read-out: GI
LOX IMVI = experiment: Cytotoxicity against human LOXIMVI cells at 10 uM; details: read-out: GI
RPMI-8226 = experiment: Cytotoxicity against human RPMI8226 cells at 10 uM; details: read-out: GI
SNB-75 = experiment: Cytotoxicity against human SNB75 cells at 10 uM; details: read-out: GI
SR = experiment: Cytotoxicity against human SR cells at 10 uM; details: read-out: GI
OVCAR-3 = experiment: Cytotoxicity against human OVCAR3 cells at 10 uM; details: for inhibition of growth at 10 µM: read-out: GI
T47D = experiment: Cytotoxicity against human T47D cells at 10 uM; details: read-out: GI
DU-145 = experiment: Cytotoxicity against human DU145 cells at 10 uM; details: for inhibition of growth at 10 µM: read-out: GI
HL-60(TB) = experiment: Cytotoxicity against human HL-60(TB) cells at 10 uM; details: read-out: GI
UACC-62 = experiment: Cytotoxicity against human UACC62 cells at 10 uM; details: read-out: GI

Row | Structure (SMILES) | inhibition of growth at 10 µM (K562) [%] | inhibition of growth at 10 µM (A549) [%] | inhibition of growth at 10 µM (HT-29) [%] | inhibition of growth at 10 µM (SK-MEL-2) [%] | inhibition of growth at 10 µM (MOLT-4) [%] | inhibition of growth at 10 µM (MDA-MB-468) [%] | inhibition of growth at 10 µM (NCI-H460) [%] | inhibition of growth at 10 µM (HOP-92) [%] | inhibition of growth at 10 µM [1] [%] | growth inhibition (GI) (NCI/ADR-RES) | inhibition of growth at 10 µM (KM12) [%] | inhibition of growth at 10 µM (MCF7) [%] | inhibition of growth at 10 µM (SF-268) [%] | inhibition of growth at 10 µM (A498) [%] | inhibition of growth at 10 µM (PC-3) [%] | inhibition of growth at 10 µM (LOX IMVI) [%] | inhibition of growth at 10 µM (RPMI-8226) [%] | inhibition of growth at 10 µM (SNB-75) [%] | inhibition of growth at 10 µM (SR) [%] | inhibition of growth at 10 µM (T47D) [%] | further results
1 | Cc1cc(S(=O)(=O)NC(=N)NCc2ccc(S(N)(=O)=O)cc2)c(SCc2cc3c(cc2Cl)OCO3)cc1Cl | 57 | 30 | 15 | 38 | 50 | 62 | 20 | 57 | 29 | inactive | 38 | 60 | 28 | 10 | 54 | 28 | 57 | 42 | 50 | 48 | inhibition of growth at 10 µM (SW-620): 8%; inhibition of growth at 10 µM (OVCAR-3): 41%; inhibition of growth at 10 µM (DU-145): 2%; inhibition of growth at 10 µM (HL-60(TB)): 58%; inhibition of growth at 10 µM (UACC-62): 56%
2 | Cc1cc(S(=O)(=O)NC(=N)Nc2cccc(S(N)(=O)=O)c2)c(SCc2ccccc2)cc1Cl | 22 | 16 | 8 | 14 | 34 | 32 | 3 | 46 | 17 | inactive | 5 | 21 | 12 | 16 | 45 | 15 | 23 | 35 | 15 | 13 | growth inhibition (GI) (SW-620): inactive; growth inhibition (GI) (OVCAR-3): inactive; growth inhibition (GI) (DU-145): inactive; inhibition of growth at 10 µM (HL-60(TB)): 16%; inhibition of growth at 10 µM (UACC-62): 30%
3 | Cc1cc(S(=O)(=O)NC(=N)Nc2cccc(S(N)(=O)=O)c2)c(SCc2ccc(C(F)(F)F)cc2)cc1Cl | 48 | 36 | 20 | 27 | 51 | 26 | 19 | 37 | 13 | inactive | 34 | 51 | 19 | 13 | 68 | 20 | 39 | 53 | 54 | 35 | inhibition of growth at 10 µM (SW-620): 5%; inhibition of growth at 10 µM (OVCAR-3): 33%; inhibition of growth at 10 µM (DU-145): 6%; inhibition of growth at 10 µM (HL-60(TB)): 33%; inhibition of growth at 10 µM (UACC-62): 35%
